According to PubChem BioAssay (NCI):
Values joined by “and” are separate entries in the source; they are usually repeats but may differ in a detail not shown here. Identical values can stand only once.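 In this assay, cells in 96-well plates receive the compound at five concentrations for 48 hours. Endpoints are linearly interpolated between the surrounding concentrations. Abbreviation: GI50, concentration required for 50% inhibition of growth. TGI marks complete inhibition of growth.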

Experiments:
Assay in all cases: DTP human tumour cell line panel, 48 h
T-47D breast = test system: T-47D breast
A549 NSCLC = test system: A549 NSCLC
MCF7 breast = test system: MCF7 breast
SNB-19 CNS = test system: SNB-19 CNS
SR leukemia = test system: SR leukemia
SK-MEL-28 melanoma = test system: SK-MEL-28 melanoma
HCT-116 colon = test system: HCT-116 colon
KM12 colon = test system: KM12 colon
SF-539 CNS = test system: SF-539 CNS
NCI-H23 lung = test system: NCI-H23 lung

Compound	GI50 (T-47D breast) [µM]	TGI (T-47D breast) [µM]	GI50 (A549 NSCLC) [µM]	TGI (A549 NSCLC) [µM]	GI50 (MCF7 breast) [µM]	TGI (MCF7 breast) [µM]	GI50 (SNB-19 CNS) [µM]	TGI (SNB-19 CNS) [µM]	GI50 (SR leukemia) [µM]	TGI (SR leukemia) [µM]	GI50 (SK-MEL-28 melanoma)	TGI (SK-MEL-28 melanoma) [µM]	GI50 (HCT-116 colon) [µM]	TGI (HCT-116 colon) [µM]	GI50 (KM12 colon)	TGI (KM12 colon) [µM]	GI50 (SF-539 CNS) [µM]	TGI (SF-539 CNS)	GI50 (NCI-H23 lung) [µM]	TGI (NCI-H23 lung) [µM]
CC(=O)O[C@H]1CC[C@@]2(C)[C@@H](CC[C@@H]3[C@@H]2CC[C@]2(C)C=C(C=O)C[C@@H]32)C1	3.74	15.5	25.8	> 100	2.58	10.8	14.5	30.8	3.19	9.94	3.98 µM	13.5	1.66	3.42	12.7 µM	30	3.66	12.7 µM	10.5	31.1
CN(C)CC1CCCCCC(CN(C)C)C1=O (configuration not stated)	2.12	12.5	14.7	30.7	2.85	15.3	41.7	> 100	2.1	7.14	3.65 µM	10.5	1.07	3.91	15.9 µM	37.1	4.16	15.7 µM	8.94	27
c1ccc(P(CCP(CCP(c2ccccc2)c2ccccc2)c2ccccc2)CCP(c2ccccc2)c2ccccc2)cc1 (configuration not stated)		4.79		> 10		3.04	> 10	> 10		> 10	> 10 µM and 2.01 µM	> 10		> 10	> 10 µM and 1.39 µM	> 10		> 10 µM and 9.84 µM		> 10
O=C(CCCSc1nc(-c2ccccc2)cc(-c2ccc(Cl)cc2)n1)NO	1.92	16.2	2.31	12.4	2.29	12.4	3.12	14.9	0.364	13.2	3.51 µM	15.3	1.04	13.1	2.96 µM	14.2	1.61	4.06 µM	2.44	10.6
CCCOc1nc(SCCC)nc2c1cnn2-c1ccccc1	> 100	> 100	> 100	> 100	> 100	> 100	> 100	> 100	32.2	> 100	> 100 µM	> 100	55.3	> 100	93.1 µM	> 100	> 100	> 100 µM	> 100	> 100
COc1ccc2c(c1)C(C)Cc1c(Cl)nc(C)nc1N2C (configuration not stated)	3.43	> 100	3	24.4	0.791	32.7	3.48	29.5	2.44	> 100	3.4 µM	38.5	1.84	16.4	0.789 µM	11.4	1.68	6.11 µM	3.48	37.2
COc1cc2c3c(n(C)c(=O)c2cc1OC)-c1cc2c(cc1/C3=C\C(N)CN)OCO2 (configuration not stated)	1.94	10.3	3.5	21.1	0.51	7	1.36	> 49.3	0.219		4.45 µM	41.8	1.16	2.44	2.39 µM	28.3	1.39	4.49 µM	1.84	5.58
